This is an account of results in patent publication US20250163104A1, “MACROCYCLIC IMMUNOMODULATORS” (priority 2021, published 2025).

Like-named read-outs stand apart in the source and are kept apart here. Where a SMILES comes first, the peptide text is derived from it. Bridges are numbered along the chain shown (N, C = ends). [ ]: non-standard residue; d: D form. The star is where a group is joined. ξ: configuration not given here. Phe(4-COOH) = N[C@@H](Cc1ccc(C(=O)O)cc1)C(=O)O; Bip = N[C@@H](Cc1ccc(-c2ccccc2)cc1)C(=O)O; Phe(3-OMe) = COc1cccc(C[C@H](N)C(=O)O)c1; Phe(3-Me) = Cc1cccc(C[C@H](N)C(=O)O)c1; Val(3-OH) = CC(C)(O)[C@H](N)C(=O)O; aIle = CC[C@@H](C)[C@H](N)C(=O)O; 4Pal = N[C@@H](Cc1ccncc1)C(=O)O; Cha = N[C@@H](CC1CCCCC1)C(=O)O; Ile(3ξ) = CCC(C)[C@H](N)C(=O)O; dCha = N[C@H](CC1CCCCC1)C(=O)O; Thr(3ξ) = CC(O)[C@H](N)C(=O)O; Carboxymethyl = O=C(O)C*; Nle = CCCC[C@H](N)C(=O)O; Orn = NCCC[C@H](N)C(=O)O; Pra = C#CC[C@H](N)C(=O)O; Dab = NCC[C@H](N)C(=O)O; Abu = CC[C@H](N)C(=O)O; Dap = NC[C@H](N)C(=O)O

The target in the assay is T1, human PD-1 / PD-L1-Ig binding on Jurkat cell line over-expressing human PD-1 (Jurkat-PD-1) (Homo sapiens, UniProt Q15116).
T1 construct: expressed in transfected cells; host or cells: Jurkat
T1 sequence (Q15116 25-288): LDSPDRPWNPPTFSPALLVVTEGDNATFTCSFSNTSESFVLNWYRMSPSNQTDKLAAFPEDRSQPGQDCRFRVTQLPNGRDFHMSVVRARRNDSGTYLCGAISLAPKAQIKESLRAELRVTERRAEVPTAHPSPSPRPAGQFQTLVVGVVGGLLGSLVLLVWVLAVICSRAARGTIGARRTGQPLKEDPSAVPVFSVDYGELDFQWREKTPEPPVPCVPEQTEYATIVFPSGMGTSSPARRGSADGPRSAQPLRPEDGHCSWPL
Kind of assay: Jurkat-PD-1 Cell Binding High-Content Screening Assay (CBA). The conditions noted are these: PE-labeled PD-L1-Ig 20 nM final. Type of assay: cell-based. An outline of the steps: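 PE-PD-L1-Ig 20 nM final; cells in DMEM/10% FCS; cpd pre-incubation 2 h, 37° C; ligand 1 h; PFA fix + Hoechst 33342; high-content imaging read-out.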

Where [1] appears, read: Jurkat-PD-1 cells, read-out: Jurkat HPD1_PDL1 IC50.

Turning to `COc1cccc(C[C@@H]2NC(=O)[C@H](CC(=O)O)NC(=O)[C@H](Cc3ccncc3)NC(=O)[C@H](CN)NC(=O)CSC[C@@H](C(=O)N[C@@H](C)C(N)=O)NC(=O)[C@H]([C@@H](C)O)NC(=O)[C@H](C(C)C)NC(=O)[C@H](CC3CCCCC3)NC(=O)[C@H](CCN)NC(=O)[C@@H](CC(C)C)NC(=O)[C@H](CCCN)NC(=O)[C@H](CCC(=O)O)NC(=O)[C@H](Cc3ccc(-c4ccccc4)cc3)NC(=O)[C@H](C(C)C)NC2=O)c1` [Compound 1546] ({CH2CO}-[Dap][4Pal]D[Phe(3-OMe)]V[Bip]E[Orn][dL][Dab][Cha]VTCA-NH2; thioether N-14), under setting [1], the IC50 was determined as 9 nM. Take `CCC(C)[C@@H]1NC(=O)[C@H](Cc2ccc(-c3ccccc3)cc2)NC(=O)[C@H](CC(C)C)NC(=O)[C@H](Cc2c[nH]c3ccccc23)NC(=O)[C@H](CC(=O)O)NC(=O)[C@H](Cc2ccc(OCC(=O)O)cc2)NC(=O)[C@H](C(C)O)NC(=O)CSC[C@@H](C(=O)N[C@@H](CC(N)=O)C(=O)O)NC(=O)[C@H](CO)NC(=O)[C@H](C(C)C)NC(=O)[C@H](CC(C)C)NC(=O)[C@H](CCN)NC(=O)[C@@H](CC(C)C)NC(=O)[C@H](CCCN)NC1=O` (stereo partly drawn) [Compound 2577] ({CH2CO}-[Thr(3ξ)]Y(Carboxymethyl)DWL[Bip][Ile(3ξ)][Orn][dL][Dab]LVSCN-OH; thioether N-14): the IC50 under setting [1] is 13.1 nM. Turning to `CC[C@@H]1NC(=O)[C@H](Cc2c[nH]c3ccccc23)NC(=O)[C@H](CC(=O)O)NC(=O)[C@H](Cc2ccc(OCC(=O)O)cc2)NC(=O)[C@H](CN)NC(=O)CSC[C@@H](C(=O)N[C@@H](C)C(N)=O)NC(=O)[C@H]([C@@H](C)O)NC(=O)[C@H](C(C)C)NC(=O)[C@H](CC2CCCCC2)NC(=O)[C@H](CCN)NC(=O)[C@@H](CC(C)C)NC(=O)[C@H](CCCN)NC(=O)[C@H](C(C)C)NC(=O)[C@H](Cc2ccc(-c3ccccc3)cc2)NC1=O` [Compound 1729] ({CH2CO}-[Dap]Y(Carboxymethyl)DW[Abu][Bip]V[Orn][dL][Dab][Cha]VTCA-NH2; thioether N-14), the IC50 (Jurkat HPD1_PDL1 IC50, Jurkat-PD-1 cells) came out at 16.9 nM. Consider `CC(C)C[C@H]1NC(=O)[C@H](CCCN)NC(=O)[C@H](C(C)C)NC(=O)[C@H](Cc2ccc(-c3ccccc3)cc2)NC(=O)[C@H](C(C)C)NC(=O)[C@H](Cc2c[nH]c3ccccc23)NC(=O)[C@H](CC(=O)O)NC(=O)[C@H](Cc2ccc(OCC(=O)O)cc2)NC(=O)[C@@H]2CC(N)CN2C(=O)CSC[C@@H](C(=O)N[C@@H](C)C(N)=O)NC(=O)[C@H](C(C)O)NC(=O)[C@H](C(C)C)NC(=O)[C@H](CC2CCCCC2)NC(=O)[C@H](CCN)NC1=O` (some centres unmarked) [Compound 2523], for which the IC50 under setting [1] amounted to 9.6 nM.

For the compound `Cc1cccc(C[C@@H]2NC(=O)[C@H](CC(=O)O)NC(=O)[C@H](Cc3ccc(C(=O)O)cc3)NC(=O)[C@H](C(C)O)NC(=O)CSC[C@@H](C(=O)N[C@@H](CCN)C(N)=O)NC(=O)[C@H](CO)NC(=O)[C@H](C(C)(C)O)NC(=O)[C@H](CC3CCCCC3)NC(=O)[C@H](CCN)NC(=O)[C@@H](CC(C)C)NC(=O)[C@H](CCCN)NC(=O)[C@H](Cc3ccc(C(=O)O)cc3)NC(=O)[C@H](Cc3ccc(-c4ccccc4)cc3)NC(=O)[C@H](Cc3ccc(C(=O)O)cc3)NC2=O)c1` (stereo partly drawn) [Compound 2665] ({CH2CO}-[Thr(3ξ)][Phe(4-COOH)]D[Phe(3-Me)][Phe(4-COOH)][Bip][Phe(4-COOH)][Orn][dL][Dab][Cha][Val(3-OH)]SC[Dab]-NH2; thioether N-14), under setting [1], the IC50 stood at 3.4 nM.

With `CC(C)C[C@@H]1NC(=O)[C@H](CCCNC(=N)N)NC(=O)[C@@H](CC(C)C)NC(=O)[C@H](CCN)NC(=O)[C@H](CCCNC(=N)N)NC(=O)[C@H](Cc2ccc(-c3ccccc3)cc2)NC(=O)[C@H](C(C)C)NC(=O)[C@H](Cc2c[nH]c3ccccc23)NC(=O)[C@H](CC(=O)O)NC(=O)[C@H](Cc2ccc(O)cc2)NC(=O)[C@H](CC(N)=O)NC(=O)CSC[C@@H](C(=O)N[C@@H](C)C(N)=O)NC(=O)[C@H]([C@@H](C)O)NC(=O)[C@H](C(C)C)NC1=O` [Compound 1011] ({CH2CO}-NYDWV[Bip]R[Dab][dL]RLVTCA-NH2; thioether N-14), the IC50 under setting [1] was 67.1 nM. Consider `CC[C@@H](C)[C@@H]1NC(=O)[C@H](Cc2ccc(-c3ccccc3)cc2)NC(=O)[C@H](C(C)C)NC(=O)[C@H](Cc2c[nH]c3ccccc23)NC(=O)[C@H](CC(=O)O)NC(=O)[C@H](Cc2ccc(OCC(=O)O)cc2)NC(=O)[C@H](CN)NC(=O)CSC[C@@H](C(=O)N[C@@H](C)C(N)=O)NC(=O)[C@H]([C@@H](C)O)NC(=O)[C@H](C(C)C)NC(=O)[C@H](CC2CCCCC2)NC(=O)[C@H](CCN)NC(=O)[C@@H](CC2CCCCC2)NC(=O)[C@H](CCCN)NC1=O` [Compound 1627] ({CH2CO}-[Dap]Y(Carboxymethyl)DWV[Bip][aIle][Orn][dCha][Dab][Cha]VTCA-NH2; thioether N-14), for which the IC50 under setting [1] is 19.3 nM. Still for that read-out and setting: the result for `CC[C@H](C)[C@@H]1NC(=O)[C@H](Cc2ccc(-c3ccccc3)cc2)NC(=O)[C@H](C(C)C)NC(=O)[C@H](Cc2c[nH]c3ccccc23)NC(=O)[C@H](CC(=O)O)NC(=O)[C@H](Cc2ccc(O)cc2)NC(=O)[C@H](CC(N)=O)NC(=O)CSC[C@@H](C(=O)NCC(N)=O)NC(=O)[C@H](CO)NC(=O)[C@H](C(C)C)NC(=O)[C@H](CC(C)C)NC(=O)[C@H](CCN)NC(=O)[C@@H](CC(C)C)NC(=O)[C@H](CCCN)NC1=O` [Compound 1121] ({CH2CO}-NYDWV[Bip]I[Orn][dL][Dab]LVSCG-NH2; thioether N-14) reads 20.9 nM; that for `C#CC[C@H](NC(=O)[C@H](CCN)NC(=O)[C@@H]1CSCC(=O)N[C@@H](CCN)C(=O)N[C@@H](Cc2ccc(C(=O)O)cc2)C(=O)N[C@@H](CC(=O)O)C(=O)N[C@@H](Cc2cccc(C)c2)C(=O)N[C@@H](Cc2ccc(C(=O)O)cc2)C(=O)N[C@@H](Cc2ccc(-c3ccccc3)cc2)C(=O)N[C@@H](Cc2ccc(C(=O)O)cc2)C(=O)N[C@@H](CCCN)C(=O)N[C@H](CC(C)C)C(=O)N[C@@H](CCN)C(=O)N[C@@H](CC2CCCCC2)C(=O)N[C@@H](C(C)(C)O)C(=O)N[C@@H](CO)C(=O)N1)C(N)=O` [Compound 1865] ({CH2CO}-[Dab][Phe(4-COOH)]D[Phe(3-Me)][Phe(4-COOH)][Bip][Phe(4-COOH)][Orn][dL][Dab][Cha][Val(3-OH)]SC[Dab][Pra]-NH2; thioether N-14), 12 nM; that for `CC(C)C[C@H]1NC(=O)[C@H](CCCN)NC(=O)[C@H](C(C)C)NC(=O)[C@H](Cc2ccc(-c3ccccc3)cc2)NC(=O)[C@H](C(C)C)NC(=O)[C@H](Cc2cccc(C(F)(F)F)c2)NC(=O)[C@H](CC(=O)O)NC(=O)[C@H](Cc2ccc(C(=O)O)cc2)NC(=O)[C@H](Cc2ccc(OCC(=O)O)cc2)NC(=O)CSC[C@@H](C(=O)N[C@@H](C)C(N)=O)NC(=O)[C@H]([C@@H](C)O)NC(=O)[C@H](C(C)C)NC(=O)[C@H](CC2CCCCC2)NC(=O)[C@H](CCN)NC1=O` [Compound 1571], 16.9 nM. As for `CCCC[C@@H]1NC(=O)[C@H](CCCNC(=N)N)NC(=O)[C@@H](CC(C)C)NC(=O)[C@H](CCCN)NC(=O)[C@H]([C@@H](C)CC)NC(=O)[C@H](Cc2ccc(-c3ccccc3)cc2)NC(=O)[C@H](C(C)C)NC(=O)[C@H](Cc2c[nH]c3ccccc23)NC(=O)[C@H](CC(=O)O)NC(=O)[C@H](Cc2ccc(O)cc2)NC(=O)[C@H](CC(N)=O)NC(=O)CSC[C@@H](C(=O)N[C@@H](C)C(N)=O)NC(=O)[C@H]([C@@H](C)O)NC(=O)[C@H](C(C)C)NC1=O` [Compound 1151] ({CH2CO}-NYDWV[Bip]I[Orn][dL]R[Nle]VTCA-NH2; thioether N-14), the IC50 under setting [1] stood at 70.9 nM.

Broadly, the IC50 is the midpoint of a concentration-inhibition curve.
